The subject of series [1] is alkali phosphatase (derived from calf intestines). The series is described as follows: Conversion by alkali phosphatase, analyzed by liquid chromatography. The format is in vitro ADME. The conditions noted are these: 2 mg in 1 ml glycine buffer pH 7.0, 20U alkali phosphatase, 37°C for 1 hour, liquid chromatography RP-18, UV 260 nm. On the procedure: 2 mg of the captioned compound was dissolved in 1 ml of a glycine buffer having pH of 7.0, and 20U of commercial alkali phosphatase (derived from calf intestines) was charged. The solution was kept at 37°C for 1 hour, and then analyzed by liquid chromatography [column: RP-18, elution solvent: a water/methanol solvent mixture, detection: UV wavelength 260 nm].

For series [2], the system named is M. euteus ATCC 9341. Briefly: In vitro antibacterial activity, agar disc dilution method. In kind it is cell-based. The conditions noted are these: read-out: minimum growth inhibitory concentration (MIC). How it is done: (§1) An in vitro antibacterial activity was measured by an agar disc dilution method.
(§2) Varied test bacteria were cultivated overnight in triptophane-soybroth. A Mueller Hinton agar containing the compound of this invention in varied concentrations was streaked with one platinum loopful of each of the bacteria (number of living cells 10^6/ml).

The subject of series [3] is E. cloacae 963. Described as above. The format is cell-based. The note with it: read-out: minimum growth inhibitory concentration (MIC). How it is done: as §1, §2
The subject of series [4] is K. pneumoniae PC I 602. The series is described as above. In kind it is cell-based. The note with it: Klebsiella pneumoniae, read-out: minimum growth inhibitory concentration (MIC). On the procedure: as §1, §2
The test system of series [5] is S. enteritidis G14. Described as above. The format is cell-based. The note with it: Salmonella enterica, read-out: minimum growth inhibitory concentration (MIC). How it is done: as §1, §2
Series [6] relates to B. subtilis ATCC 6633. The description is as above. The format is cell-based. The conditions noted are these: Bacillus subtilis, read-out: minimum growth inhibitory concentration (MIC). On the procedure:
as §1, §2

In series [7] the test system is S. pyogenes Cook. The series is described as above. In kind it is cell-based. The note with it: Streptococcus pyogenes, read-out: minimum growth inhibitory concentration (MIC). On the procedure:
as §1, §2

The subject of series [8] is P. morganii IFO 3445. The description is as above. The note with it: Morganella morganii, read-out: minimum growth inhibitory concentration (MIC). In kind it is cell-based. How it is done:
as §1, §2

The test system of series [9] is P. vulgalis OX-19. The series is described as above. In kind it is cell-based. The conditions noted are these: read-out: minimum growth inhibitory concentration (MIC). How it is done: as §1, §2
Series [10] relates to E. coli K12C600. The series is described as above. In kind it is cell-based. The note with it: Escherichia coli, read-out: minimum growth inhibitory concentration (MIC). How it is done: as §1, §2
Series [11] has as its system P. aeruginosa NCTC 1049. Described as above. The format is cell-based. The conditions noted are these: Pseudomonas aeruginosa, read-out: minimum growth inhibitory concentration (MIC). On the procedure:
as §1, §2

Series [12] has as its system P. rettgeric IFO3850. The description is as above. The conditions noted are these: read-out: minimum growth inhibitory concentration (MIC). The format is cell-based. How it is done: as §1, §2
For series [13], the system named is S. aureus Terajima. The series is described as above. The note with it: Staphylococcus aureus, read-out: minimum growth inhibitory concentration (MIC). The format is cell-based. On the procedure:
as §1, §2

Series [14] has as its system S. typhic 901. Described as above. In kind it is cell-based. The note with it: Mueller Hinton agar, 10^6/ml, 37°C for 16 hours, read-out: minimum growth inhibitory concentration (MIC). On the procedure:
as §1, §2

Series [15] relates to S. marcescens I AM 1184. The series is described as above. The format is cell-based. The conditions noted are these: Serratia marcescens, read-out: minimum growth inhibitory concentration (MIC). How it is done:
as §1, §2

Setting [16] is: M. euteus ATCC 9341, Mueller Hinton agar, 10^6/ml, 37°C for 16 hours.
Where [17] appears, read: Enterobacter cloacae, E. cloacae 963, Mueller Hinton agar, 10^6/ml, 37°C for 16 hours.
Where [18] appears, read: PCI602, K. pneumoniae PC I 602, Mueller Hinton agar, 10^6/ml, 37°C for 16 hours.
Setting [19] is: S. enteritidis G14, Mueller Hinton agar, 10^6/ml, 37°C for 16 hours.
[20] abbreviates: ATCC6633, B. subtilis ATCC 6633, Mueller Hinton agar, 10^6/ml, 37°C for 16 hours.
Where [21] appears, read: S. pyogenes Cook, Mueller Hinton agar, 10^6/ml, 37°C for 16 hours.
The mark [22] stands for this setting: IFO3445, P. morganii IFO 3445, Mueller Hinton agar, 10^6/ml, 37°C for 16 hours.
[23] abbreviates: P. vulgalis OX-19, Mueller Hinton agar, 10^6/ml, 37°C for 16 hours.
Setting [24] is: E. coli K12C600, Mueller Hinton agar, 10^6/ml, 37°C for 16 hours.
The mark [25] stands for this setting: NCTC1049, P. aeruginosa NCTC 1049, Mueller Hinton agar, 10^6/ml, 37°C for 16 hours.
The mark [26] stands for this setting: P. rettgeric IFO3850, Mueller Hinton agar, 10^6/ml, 37°C for 16 hours.
Where [27] appears, read: S. aureus Terajima, Mueller Hinton agar, 10^6/ml, 37°C for 16 hours.
Where [28] appears, read: IAM1184, S. marcescens I AM 1184, Mueller Hinton agar, 10^6/ml, 37°C for 16 hours.

Converted amounts (≈) assume the structure as drawn. Where two headings read alike, the source gives them in different places.

Regarding `Nc1nc(/C(=N/Oc2ccccc2)C(=O)N[C@@H]2C(=O)N3C(C(=O)[O-])=C(C[n+]4ccc5cc(O)c(OS(=O)(=O)O)cc5c4)CS[C@H]23)cs1` [Example 6, (6R,7R)-7-[(Z)-2-(2-amino-1,3-thiazol-4-yl-2-phenoxyimino)acetamide]-3-(6,7-hydroxy-7-sulfonyloxy-2-isoquinolinium)methyl-3-cephem-4-carboxylate], the “Rf value of the main peak compared with the 6,7-dihydroxy-2-isoquinoliniummethyl compound (compound of Example 1)” value in series [1] was “confirmed to agree”.
Consider `CC(C)(O/N=C(\C(=O)N[C@@H]1C(=O)N2C(C(=O)[O-])=C(C[n+]3ccccc3)CS[C@H]12)c1csc(N)n1)C(=O)O` [CAZ, Ceftazidime, reference compound], for which the MIC in series [2] (16 h) stood at 1.6 µg/mL (≈ 2.93 µM); in series [3] (Enterobacter cloacae, 963, 16 h) it was 0.1 µg/mL (≈ 0.183 µM); in series [4] (PCI602, 16 h), 0.1 µg/mL (≈ 0.183 µM); in series [5] (ENTERITIDIS, 16 h), 0.1 µg/mL (≈ 0.183 µM); in [6] (ATCC6633, 16 h) it was 3.1 µg/mL (≈ 5.67 µM); in series [7] (16 h) it was 1.6 µg/mL (≈ 2.93 µM). The MIC in series [8] (IFO3445, 16 h) came out at 0.01 µg/mL (≈ 0.0183 µM); in series [9] (16 h), 0.01 µg/mL (≈ 0.0183 µM); in series [10] (K12C600, 16 h), 0.2 µg/mL (≈ 0.366 µM); in [11] (NCTC1049, 16 h), 0.8 µg/mL (≈ 1.46 µM); in series [12] (16 h), 0.01 µg/mL (≈ 0.0183 µM); in series [13] (16 h) it was 3.1 µg/mL (≈ 5.67 µM). Further, the MIC in series [14] was 0.1 µg/mL (≈ 0.183 µM); in [15] (IAM1184, 16 h), 0.03 µg/mL (≈ 0.0549 µM).
Turning to `Nc1nc(/C(=N/Oc2ccccc2)C(=O)N[C@@H]2C(=O)N3C(C(=O)[O-])=C(C[n+]4ccc5cc(O)c(O)cc5c4)CS[C@H]23)cs1` [Compound I, (6R,7R)-7-[(Z)-2-(2-amino-1,3-thiazol-4-yl)-2-phenoxy-iminoacetamide]-3-(6,7-dihydroxy-2-isoquinolinium)methyl-3-cephem-4-carboxylate], the MIC in series [2] (setting [16]) is 0.1 µg/mL (≈ 0.162 µM); in series [3] (setting [17]), < 0.01 µg/mL; in series [4] (setting [18]), < 0.01 µg/mL; in series [5] (setting [19]), < 0.01 µg/mL; in series [6] (setting [20]), 0.1 µg/mL (≈ 0.162 µM); in [7] (setting [21]) it was 0.2 µg/mL (≈ 0.323 µM). The MIC in series [8] (setting [22]) was < 0.01 µg/mL; in series [9] (setting [23]), < 0.01 µg/mL; in series [10] (setting [24]), < 0.01 µg/mL; in series [11] (setting [25]), 0.1 µg/mL (≈ 0.162 µM); in series [12] (setting [26]) it was < 0.01 µg/mL; in [13] (setting [27]) it was 0.8 µg/mL (≈ 1.29 µM). The MIC in series [14] and in [15] (setting [28]) was < 0.01 µg/mL throughout.
Regarding `Nc1nc(/C(=N/Oc2ccccc2)C(=O)N[C@@H]2C(=O)N3C(C(=O)[O-])=C(C[n+]4ccc5cc(O)c(O)cc5c4)CS[C@H]23)ns1` [Compound XI, (6R,7R)-[(Z)-2(5-amino-1,2,4-thiadiazol-3-yl)-2-phenoxyiminoacetamide]-3-(6,7-dihydroxy-2-isoquinolinium)methyl-3-cephem-carboxylate], the MIC in series [2] (setting [16]) was 0.01 µg/mL (≈ 0.0161 µM); in [3] (setting [17]), < 0.01 µg/mL; in [4] (setting [18]), < 0.01 µg/mL; in [5] (setting [19]), < 0.01 µg/mL; in series [6] (setting [20]) it was 0.4 µg/mL (≈ 0.646 µM); in series [7] (setting [21]), 0.05 µg/mL (≈ 0.0807 µM). In addition, the MIC in series [8] (setting [22]) was < 0.01 µg/mL; in series [9] (setting [23]) it was < 0.01 µg/mL; in series [10] (setting [24]), 0.01 µg/mL (≈ 0.0161 µM); in [11] (setting [25]) it was 0.2 µg/mL (≈ 0.323 µM); in series [12] (setting [26]) it was < 0.01 µg/mL; in series [13] (setting [27]) it was 0.2 µg/mL (≈ 0.323 µM). Further, the MIC in series [14] and in series [15] (setting [28]) was < 0.01 µg/mL throughout.
For `Nc1nc(/C(=N/Oc2cccc(C(=O)O)c2)C(=O)N[C@@H]2C(=O)N3C(C(=O)[O-])=C(C[n+]4ccc5cc(O)c(O)cc5c4)CS[C@H]23)cs1` [Compound VIII], the MIC in series [2] (setting [16]) was 1.6 µg/mL (≈ 2.41 µM); in [3] (setting [17]) it was 0.1 µg/mL (≈ 0.151 µM); in series [4] (setting [18]), 0.03 µg/mL (≈ 0.0453 µM); in series [5] (setting [19]), 0.03 µg/mL (≈ 0.0453 µM); in series [6] (setting [20]) it was 0.3 µg/mL (≈ 0.453 µM); in series [7] (setting [21]), 0.8 µg/mL (≈ 1.21 µM). Besides, the MIC in [8] (setting [22]) came out at 0.03 µg/mL (≈ 0.0453 µM); in series [9] (setting [23]) it was 0.02 µg/mL (≈ 0.0302 µM); in [10] (setting [24]), 0.05 µg/mL (≈ 0.0755 µM); in [11] (setting [25]) it was 0.2 µg/mL (≈ 0.302 µM); in series [12] (setting [26]), 0.02 µg/mL (≈ 0.0302 µM); in series [13] (setting [27]), 3.1 µg/mL (≈ 4.68 µM). In addition, the MIC in [14] is 0.03 µg/mL (≈ 0.0453 µM); in series [15] (setting [28]), 0.1 µg/mL (≈ 0.151 µM).

Source of the values: patent EP0373216A1, “CEPHALOSPORIN COMPOUNDS OR THEIR SALTS, PROCESS FOR THEIR PREPARATION, AND PARMACEUTICAL COMPOSITIONS” (TEIJIN LIMITED, priority 1987, dated 1988).
